Experimental data published in ChEMBL document CHEMBL5465560, “Selectivity Literature for EUbOPEN Chemogenomic Library” (2024).

Assays:
[1] = target: Cyclin-Y/Cyclin-dependent kinase 16 (Homo sapiens) (UniProt Q00536+Q8ND76); experiment: Selectivity interaction (LanthaScreen Eu Kinase Binding Assay) EUB0001632a CDK16; type: protein-complex assay; settings: at 10 µM
[2] = target: T1, Serine/threonine-protein kinase MAK (Homo sapiens) (UniProt P20794); settings: at 10 µM
T1 sequence (whole entry): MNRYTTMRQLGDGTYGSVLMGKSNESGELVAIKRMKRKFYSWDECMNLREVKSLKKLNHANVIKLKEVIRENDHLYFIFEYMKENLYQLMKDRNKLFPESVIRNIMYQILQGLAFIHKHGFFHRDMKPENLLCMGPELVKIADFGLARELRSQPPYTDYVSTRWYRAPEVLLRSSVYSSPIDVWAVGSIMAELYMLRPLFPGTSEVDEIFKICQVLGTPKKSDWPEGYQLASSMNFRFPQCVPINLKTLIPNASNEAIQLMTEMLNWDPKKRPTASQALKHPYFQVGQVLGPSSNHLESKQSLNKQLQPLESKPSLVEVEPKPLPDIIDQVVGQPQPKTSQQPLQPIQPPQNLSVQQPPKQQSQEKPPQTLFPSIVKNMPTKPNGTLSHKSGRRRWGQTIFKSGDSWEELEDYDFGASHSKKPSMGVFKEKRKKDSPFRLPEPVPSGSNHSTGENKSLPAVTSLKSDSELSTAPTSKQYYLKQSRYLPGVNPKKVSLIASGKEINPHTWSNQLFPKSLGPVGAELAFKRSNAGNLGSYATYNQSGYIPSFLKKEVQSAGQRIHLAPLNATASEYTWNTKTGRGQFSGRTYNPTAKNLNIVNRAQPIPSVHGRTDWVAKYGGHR

[3] = target: T2, Dual specificity mitogen-activated protein kinase kinase 6 (Homo sapiens) (UniProt P52564); settings: at 10 µM
T2 sequence (whole entry): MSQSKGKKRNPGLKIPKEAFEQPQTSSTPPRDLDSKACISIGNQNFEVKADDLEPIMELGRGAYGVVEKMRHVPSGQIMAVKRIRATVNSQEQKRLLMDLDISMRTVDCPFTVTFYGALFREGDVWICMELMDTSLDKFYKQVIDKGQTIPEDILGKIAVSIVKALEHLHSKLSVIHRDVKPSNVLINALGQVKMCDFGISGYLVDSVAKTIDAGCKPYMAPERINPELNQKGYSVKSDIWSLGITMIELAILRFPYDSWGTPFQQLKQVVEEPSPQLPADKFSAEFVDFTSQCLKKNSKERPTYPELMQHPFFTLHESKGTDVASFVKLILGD

[4] = target: Serine/threonine-protein kinase NIM1 (Homo sapiens, UniProt Q8IY84); experiment: Selectivity interaction (KinomeScan (DiscoverX)) EUB0000607a NIM1K; settings: at 10 µM
Sequence of Serine/threonine-protein kinase NIM1 (Q8IY84 whole entry): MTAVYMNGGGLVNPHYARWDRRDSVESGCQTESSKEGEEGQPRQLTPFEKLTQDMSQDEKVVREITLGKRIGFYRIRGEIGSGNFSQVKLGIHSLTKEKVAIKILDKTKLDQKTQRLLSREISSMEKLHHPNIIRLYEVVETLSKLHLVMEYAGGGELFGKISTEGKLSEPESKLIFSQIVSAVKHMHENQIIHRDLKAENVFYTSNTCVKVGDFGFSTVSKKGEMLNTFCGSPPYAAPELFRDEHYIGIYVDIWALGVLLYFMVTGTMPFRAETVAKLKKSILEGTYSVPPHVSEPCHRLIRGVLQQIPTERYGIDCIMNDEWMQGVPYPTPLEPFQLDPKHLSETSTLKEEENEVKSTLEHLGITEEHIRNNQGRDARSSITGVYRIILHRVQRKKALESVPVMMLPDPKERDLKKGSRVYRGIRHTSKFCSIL

[5] = target: Mitogen-activated protein kinase 14 (Homo sapiens, UniProt Q16539); experiment: Selectivity interaction (Kinase panel (DSF assay)) EUB0001558a MAPK14
Sequence of Mitogen-activated protein kinase 14 (Q16539 whole entry): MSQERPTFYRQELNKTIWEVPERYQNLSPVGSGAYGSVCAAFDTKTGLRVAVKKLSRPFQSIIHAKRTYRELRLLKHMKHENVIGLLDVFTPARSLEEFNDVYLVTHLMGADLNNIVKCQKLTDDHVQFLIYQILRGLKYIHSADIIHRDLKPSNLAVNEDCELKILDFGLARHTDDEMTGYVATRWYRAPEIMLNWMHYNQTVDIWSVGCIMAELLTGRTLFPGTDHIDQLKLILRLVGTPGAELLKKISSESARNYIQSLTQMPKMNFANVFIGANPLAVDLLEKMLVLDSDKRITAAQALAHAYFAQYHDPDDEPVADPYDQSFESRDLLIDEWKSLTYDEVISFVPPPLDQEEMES

[6] = target: NT-3 growth factor receptor (Homo sapiens, UniProt Q16288); experiment: Selectivity interaction (KinomeScan (DiscoverX)) EUB0000618a NTRK3; settings: at 10 µM
Sequence of NT-3 growth factor receptor (Q16288 32-839 limits assumed): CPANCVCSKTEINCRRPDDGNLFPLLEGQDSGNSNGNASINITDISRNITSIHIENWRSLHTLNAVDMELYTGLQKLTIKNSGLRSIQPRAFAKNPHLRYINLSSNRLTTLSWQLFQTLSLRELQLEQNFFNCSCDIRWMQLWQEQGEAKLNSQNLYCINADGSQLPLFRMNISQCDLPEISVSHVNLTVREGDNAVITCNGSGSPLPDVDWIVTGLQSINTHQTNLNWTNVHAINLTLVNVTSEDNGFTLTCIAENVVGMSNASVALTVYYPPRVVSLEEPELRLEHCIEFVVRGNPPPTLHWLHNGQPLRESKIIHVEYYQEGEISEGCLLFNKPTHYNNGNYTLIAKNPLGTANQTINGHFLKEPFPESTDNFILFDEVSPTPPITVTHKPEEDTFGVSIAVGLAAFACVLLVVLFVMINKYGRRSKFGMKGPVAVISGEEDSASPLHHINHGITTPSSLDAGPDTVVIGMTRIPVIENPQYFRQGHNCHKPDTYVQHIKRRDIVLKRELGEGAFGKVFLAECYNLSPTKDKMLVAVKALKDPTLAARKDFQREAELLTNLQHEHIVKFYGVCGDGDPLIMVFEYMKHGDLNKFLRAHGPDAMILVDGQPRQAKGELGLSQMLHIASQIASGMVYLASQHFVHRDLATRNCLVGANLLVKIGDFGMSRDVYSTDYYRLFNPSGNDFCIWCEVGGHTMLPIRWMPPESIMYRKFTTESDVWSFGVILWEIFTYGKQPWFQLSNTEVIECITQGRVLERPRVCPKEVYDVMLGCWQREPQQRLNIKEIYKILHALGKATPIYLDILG

[7] = target: T3, Mitogen-activated protein kinase kinase kinase kinase 2 (Homo sapiens) (UniProt Q12851); experiment: Selectivity interaction (ActivX KiNativ screen (kinase selectivity in THP-1 cell lysates)) EUB0000639a MAP4K2; type: subcellular; settings: lysate, at 5 µM
T3 sequence (whole entry): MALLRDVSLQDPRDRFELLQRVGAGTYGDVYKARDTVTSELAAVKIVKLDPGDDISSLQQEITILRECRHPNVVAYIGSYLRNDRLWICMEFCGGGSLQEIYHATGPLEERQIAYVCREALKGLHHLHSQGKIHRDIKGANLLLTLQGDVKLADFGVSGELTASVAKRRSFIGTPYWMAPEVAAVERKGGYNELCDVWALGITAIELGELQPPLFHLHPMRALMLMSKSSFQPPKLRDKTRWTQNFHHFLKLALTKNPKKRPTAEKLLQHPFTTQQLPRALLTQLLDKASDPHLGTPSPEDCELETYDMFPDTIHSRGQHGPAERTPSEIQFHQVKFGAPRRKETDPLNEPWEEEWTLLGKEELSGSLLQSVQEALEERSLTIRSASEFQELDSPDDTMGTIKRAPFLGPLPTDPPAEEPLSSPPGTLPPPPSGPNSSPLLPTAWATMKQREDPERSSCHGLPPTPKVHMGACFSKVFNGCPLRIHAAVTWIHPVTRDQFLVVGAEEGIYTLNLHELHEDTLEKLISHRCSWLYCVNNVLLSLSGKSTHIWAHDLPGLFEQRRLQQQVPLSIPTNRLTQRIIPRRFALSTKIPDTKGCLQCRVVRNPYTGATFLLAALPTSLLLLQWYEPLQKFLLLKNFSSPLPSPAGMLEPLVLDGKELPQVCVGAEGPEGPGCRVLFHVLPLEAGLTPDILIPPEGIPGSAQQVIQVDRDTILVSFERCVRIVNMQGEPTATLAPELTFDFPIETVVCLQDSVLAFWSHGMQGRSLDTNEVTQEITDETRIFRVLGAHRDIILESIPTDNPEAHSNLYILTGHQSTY

[8] = target: Proto-oncogene tyrosine-protein kinase Src (Homo sapiens, UniProt P12931); experiment: Selectivity interaction (ActivX KiNativ screen (kinase selectivity in THP-1 cell lysates)) EUB0000639a SRC; type: subcellular; settings: lysate
Sequence of Proto-oncogene tyrosine-protein kinase Src (P12931 2-536 limits assumed): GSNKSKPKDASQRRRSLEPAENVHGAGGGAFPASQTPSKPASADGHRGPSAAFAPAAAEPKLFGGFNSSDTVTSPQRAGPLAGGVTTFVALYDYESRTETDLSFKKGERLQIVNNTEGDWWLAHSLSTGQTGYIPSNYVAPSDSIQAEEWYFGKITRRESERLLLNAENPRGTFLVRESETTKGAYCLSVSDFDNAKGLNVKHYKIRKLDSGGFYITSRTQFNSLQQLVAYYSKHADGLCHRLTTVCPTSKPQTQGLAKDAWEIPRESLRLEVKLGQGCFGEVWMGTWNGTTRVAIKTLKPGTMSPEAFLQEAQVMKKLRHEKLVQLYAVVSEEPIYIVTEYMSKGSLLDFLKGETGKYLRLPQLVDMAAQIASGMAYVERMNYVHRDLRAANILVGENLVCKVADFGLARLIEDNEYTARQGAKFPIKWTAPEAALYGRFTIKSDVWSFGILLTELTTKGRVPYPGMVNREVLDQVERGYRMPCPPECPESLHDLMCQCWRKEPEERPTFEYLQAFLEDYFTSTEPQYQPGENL

**Q.** With `Cn1cc(-n2cnc3c(NCc4nc5cc(Cl)c(Cl)cc5[nH]4)nc(N4CCOCC4)nc32)cn1` as the molecule, how does the % of inhibition [1] read?
**A.** 15%

**Q.** Which % of control [2] does the source give for `Cc1cc([C@@H](C)Nc2ccccc2C(=O)O)c2nc(N3CCOCC3)cc(=O)n2c1` [AZD-6482] here?
**A.** 67%

**Q.** What about the % of control [3] of the same molecule?
**A.** 92%

**Q.** How did the % of control [4] turn out when `CNC(=O)Nc1ccc(-c2nc(N3CC4CCC(C3)O4)c3cnn(C4CCC5(CC4)OCCO5)c3n2)cc1` was run?
**A.** 100%

**Q.** With `CC(C)(O)[C@H](F)CN1Cc2cc(NC(=O)c3cnn4cccnc34)c(N3CCOCC3)cc2C1=O` as the molecule, how does the dTM [5] read?
**A.** 0.3 K

**Q.** Which % of control [6] does the source give for `O[C@H]1CC[C@H](Nc2ncc3nc(Nc4c(F)cc(F)cc4F)n([C@H]4CCOC4)c3n2)CC1` here?
**A.** 100%

**Q.** With `CC[C@@H]1[C@H](F)C(=O)N[C@@H]1COc1nccc2cc(C(N)=O)c(OC)cc12` [ZIMLOVISERTIB] as the molecule, how does the % of inhibition [7] read?
**A.** -1.3%

**Q.** What about the % of inhibition ([8]; at 0.01 µM) of the same molecule?
**A.** -8.5%

**Q.** And the % of inhibition ([8]; at 0.04 µM)?
**A.** -0.2%

**Q.** What about the % of inhibition ([8]; at 0.2 µM) of the same molecule?
**A.** 0.7%

**Q.** And the % of inhibition ([8]; at 1 µM)?
**A.** -11%

**Q.** What about the % of inhibition ([8]; at 5 µM) of the same molecule?
**A.** -13.3%
